Laboratory results as given in patent publication US6762181B1, “Aminomethylpyrrolidine derivatives having aromatic substituents” (Daiichi Pharmaceutical Co., Ltd., priority 1999, dated 2004).
≈ marks a conversion by molar mass, not a printed value. Where two headings read alike, the source gives them in different places.

Tests used:
Assay in all cases: Antibacterial activity (MIC), Japan Society of Chemotherapy standard method
Format in all cases: cell-based
E. coli NIHJ = test system: E. coli NIHJ
Description: (§1) Antibacterial activities of the compounds of the invention were measured in accordance with the standard method specified by the Japan Society of Chemotherapy, with the results shown in the following table as MIC values (μg/ml). In this connection, MIC values of levofloxacin (LVFX), ciprofloxacin (CPFX) and 5-amino-7-[3-(R)-[1-(S)-aminoethyl]pyrrolidin-1-yl]-6-fluoro-1-[2-(S)-fluoro-1-(R)-cyclopropyl]-8-methyl-1,4-dihydro-4-oxoquinoline-3-carboxylic acid (control drug 1) described in WO 9623782 are also shown for the sake of comparison with the MIC values of the compounds of the invention.

E. faecalis ATCC 19433 = test system: E. faecalis ATCC 19433
Description: as §1

K. pneumoniae TYPE 1 = test system: K. pneumoniae TYPE 1
Description: as §1

Pr. Vulgaris O8601 = test system: Pr. Vulgaris O8601
Description: as §1

Ps. aeruginosa 32104 = test system: Ps. aeruginosa 32104
Description: as §1

Ps. aeruginosa 32121 = test system: Ps. aeruginosa 32121
Description: as §1

S. aureus 870307 = test system: S. aureus 870307
Description: as §1

S. aureus FDA 209P = test system: S. aureus FDA 209P
Description: as §1

S. epidermidis 56500 = test system: S. epidermidis 56500
Description: as §1

S. flexneri 2A 5503 = test system: S. flexneri 2A 5503
Description: as §1

Ser. marcescens 10100 = test system: Ser. marcescens 10100
Description: as §1

Str. pneumoniae J24 = test system: Str. pneumoniae J24
Description: as §1

Str. pyrogenes G-36 = test system: Str. pyrogenes G-36
Description: as §1

X. maltophilia IID 1275 = test system: X. maltophilia IID 1275
Description: as §1

[1] = Klebsiella pneumoniae, TYPE1, K. pneumoniae TYPE 1, read-out: MIC
[2] = Pseudomonas aeruginosa, 32104, Ps. aeruginosa 32104, read-out: MIC
[3] = Pseudomonas aeruginosa, 32121, Ps. aeruginosa 32121, read-out: MIC
[4] = Staphylococcus aureus, FDA209P, read-out: MIC
[5] = Staphylococcus epidermidis, read-out: MIC
[6] = Serratia marcescens, 10100, Ser. marcescens 10100, read-out: MIC
[7] = Streptococcus pneumoniae, J24, Str. pneumoniae J24, read-out: MIC
[8] = Stenotrophomonas maltophilia, IID1275, X. maltophilia IID 1275, read-out: MIC
[9] = Escherichia coli, read-out: MIC
[10] = Shigella flexneri, 2A5503, S. flexneri 2A 5503, read-out: MIC

SMILES | MIC (E. coli NIHJ) | MIC (E. faecalis ATCC 19433; E. faecalis ATCC 19433) [µg/mL] | MIC (K. pneumoniae TYPE 1; [1]) [µg/mL] | MIC (Pr. Vulgaris O8601) [µg/mL] | MIC (Ps. aeruginosa 32104; [2]) [µg/mL] | MIC (Ps. aeruginosa 32121; [3]) [µg/mL] | MIC (S. aureus 870307; S. aureus 870307) | MIC (S. aureus FDA 209P; [4]) [µg/mL] | MIC (S. epidermidis 56500; [5]) [µg/mL] | MIC (S. flexneri 2A 5503; S. flexneri 2A 5503) | MIC (Ser. marcescens 10100; [6]) [µg/mL] | MIC (Str. pyrogenes G-36) | MIC (K. pneumoniae TYPE 1; K. pneumoniae TYPE 1) [µg/mL] | MIC (Ps. aeruginosa 32104; Ps. aeruginosa 32104) [µg/mL] | MIC (Ps. aeruginosa 32121; Ps. aeruginosa 32121) [µg/mL] | MIC (S. aureus FDA 209P) | MIC (S. epidermidis 56500) | MIC (Ser. marcescens 10100; Ser. marcescens 10100) [µg/mL] | MIC (Str. pneumoniae J24; Str. pneumoniae J24) | MIC (X. maltophilia IID 1275; X. maltophilia IID 1275) [µg/mL] | further results
Nc1c(F)c(N2CC[C@@H](C(N)c3ccco3)C2)c(F)c2c1c(=O)c(C(=O)O)cn2[C@@H]1C[C@@H]1F (stereo partly drawn) [Example 11, 5-Amino-7-{3-(R)-[1-amino-1-(2-furyl)methyl]-1-pyrrolidinyl}-6,8-difluoro-1-[2-(S)-fluoro-1-(R)-cyclopropyl]-1,4-dihydro-4-oxoquinoline-3-carboxylic acid] | ≦0.003 μg/ml | 0.025 (≈ 0.0541 µM) | 0.025 (≈ 0.0541 µM) | 0.05 (≈ 0.108 µM) | 0.2 (≈ 0.432 µM) | 0.05 (≈ 0.108 µM) | 0.025 µg/mL (≈ 0.0541 µM) | ≤ 0.003 | ≤ 0.003 | ≦0.003 μg/ml | 0.05 (≈ 0.108 µM) | 0.013 µg/mL (≈ 0.0281 µM) | – | – | – | – | – | – | – | – | MIC (Str. pneumoniae J24; [7]): 0.006 µg/mL (≈ 0.013 µM); MIC (X. maltophilia IID 1275; [8]): 0.05 µg/mL (≈ 0.108 µM)
Nc1c(F)c(N2CC[C@@H](C(N)c3ccco3)C2)c(F)c2c1c(=O)c(C(=O)O)cn2[C@@H]1C[C@@H]1F (stereo partly drawn) [Example 12, 5-Amino-7-{3-(R)-[1-amino-1-(2-furyl)methyl]-1-pyrrolidinyl}-6,8-difluoro-1-[2-(S)-fluoro-1-(R)-cyclopropyl]-1,4-dihydro-4-oxoquinoline-3-carboxylic acid] | – | 0.006 (≈ 0.013 µM) | – | 0.013 (≈ 0.0281 µM) | – | – | ≦0.003 μg/ml | – | – | – | – | ≦0.003 μg/ml | 0.025 (≈ 0.0541 µM) | 0.1 (≈ 0.216 µM) | 0.05 (≈ 0.108 µM) | ≦0.003 μg/ml | ≦0.003 μg/ml | 0.025 (≈ 0.0541 µM) | ≦0.003 μg/ml | 0.05 (≈ 0.108 µM) | MIC (E. coli NIHJ; [9]): ≤ 0.003 µg/mL; MIC (S. flexneri 2A 5503; [10]): ≤ 0.003 µg/mL
Nc1c(F)c(N2CC[C@@H](C(N)c3ccccn3)C2)c(F)c2c1c(=O)c(C(=O)O)cn2[C@@H]1C[C@@H]1F (stereo partly shown) [Example 16] | ≦0.003 μg/ml | 0.013 (≈ 0.0275 µM) | – | 0.025 (≈ 0.0528 µM) | – | – | 0.006 µg/mL (≈ 0.0127 µM) | – | – | ≦0.003 μg/ml | – | ≦0.003 μg/ml | 0.025 (≈ 0.0528 µM) | 0.2 (≈ 0.422 µM) | 0.05 (≈ 0.106 µM) | ≦0.003 μg/ml | ≦0.003 μg/ml | 0.1 (≈ 0.211 µM) | ≦0.003 μg/ml | 0.1 (≈ 0.211 µM) | –
Cc1c(N2CC[C@@H](C(N)c3ccccn3)C2)c(F)c(N)c2c(=O)c(C(=O)O)cn([C@@H]3C[C@@H]3F)c12 (stereo partly drawn) [Example 17, 5-Amino-7-{3-(R)-[1-amino-1-(2-pyridyl)methyl]-1-pyrrolidiny}-6-fluoro-1-[(1R, 2S)-2-fluorocyclopropyl)-1,4-dihydro-8-methyl-4-oxoquinoline-3-carboxylic acid] | ≦0.003 μg/ml | 0.025 (≈ 0.0532 µM) | – | 0.05 (≈ 0.106 µM) | – | – | 0.013 µg/mL (≈ 0.0277 µM) | – | – | 0.006 µg/mL (≈ 0.0128 µM) | – | ≦0.003 μg/ml | 0.05 (≈ 0.106 µM) | 0.2 (≈ 0.426 µM) | 0.1 (≈ 0.213 µM) | ≦0.003 μg/ml | ≦0.003 μg/ml | 0.1 (≈ 0.213 µM) | ≦0.003 μg/ml | 0.05 (≈ 0.106 µM) | –
Nc1c(F)c(N2CC[C@@H](C(N)c3cccnc3)C2)c(F)c2c1c(=O)c(C(=O)O)cn2[C@@H]1C[C@@H]1F (stereo partly drawn) [Example 19, 5-Amino-7-(3-(R)-[1-amino-1-(3-pyridyl)methyl]-1-pyrrolidinyl]-6,8-difluoro-1-[(1R, 2S)-2-fluorocyclopropyl]-1,4-dihydro-4-oxoquinoline-3-carboxylic acid] | – | – | 0.025 (≈ 0.0528 µM) | – | 0.2 (≈ 0.422 µM) | 0.05 (≈ 0.106 µM) | – | ≤ 0.003 | ≤ 0.003 | – | 0.1 (≈ 0.211 µM) | – | – | – | – | – | – | – | – | – | MIC (E. coli NIHJ; [9]): ≤ 0.003 µg/mL; MIC (E. faecalis ATCC 19433; Enterococcus faecalis, ATCC19433, E. faecalis ATCC 19433, read-out: MIC): 0.025 µg/mL (≈ 0.0528 µM); MIC (Pr. Vulgaris O8601; Proteus vulgaris, read-out: MIC): 0.025 µg/mL (≈ 0.0528 µM); MIC (S. aureus 870307; Staphylococcus aureus, 870307, S. aureus 870307, read-out: MIC): 0.025 µg/mL (≈ 0.0528 µM); MIC (S. flexneri 2A 5503; [10]): ≤ 0.003 µg/mL; MIC (Str. pneumoniae J24; [7]): ≤ 0.003 µg/mL; MIC (Str. pyrogenes G-36; read-out: MIC): ≤ 0.003 µg/mL; MIC (X. maltophilia IID 1275; [8]): 0.1 µg/mL (≈ 0.211 µM)
